Laboratory results as given in patent US10406335B2, “Drug delivery systems and methods for treatment of prostate” (TARIS Biomedical LLC, priority 2012, dated 2019).

Assays:
prostate cancer = settings: Phase 2 clinical studies; cited from earlier work
[1] = 14C gemcitabine tissue uptake after intra-urinary bladder perfusion or IV bolus in rats; format: in vivo, male Sprague Dawley rats
Procedure: The 6- and 24-hour continuous perfusions perfused 6.9 and 26.6 mg, respectively, of gemcitabine into the bladder. The single IV bolus included 5.0 mg of gemcitabine.
Blood (FIG. 8), urine, and tissue samples (e.g., bladder, prostate) (FIGS. 7 and 9) were collected and analyzed for gemcitabine content. The results are illustrated in FIGS. 7-9.

[2] = Oxaliplatin or cisplatin tissue uptake after intra-urinary bladder perfusion or IV bolus in rats; settings: 6- or 24-hour continuous bladder perfusion; FIG. 10 and FIG. 11

Row | gemcitabine levels in bladder tissue ([1]; 6- or 24-hour continuous bladder perfusion (6.9 and 26.6 mg), sustained urine concentrations, FIG. 9) | concentration of gemcitabine in the bladder ([1]; 24 hours after a clinically relevant IV dose (5.0 mg bolus), compared with bladder perfusion, FIG. 9) | SMILES | efficacy in prostate cancer patients (prostate cancer) | prostate gemcitabine tissue concentrations ([1]; after bladder perfusion, compared with IV administration, FIG. 7) | bladder concentrations [2]
1 | at or exceed therapeutic concentrations | significantly lower concentration | Nc1ccn([C@@H]2O[C@H](CO)[C@@H](O)C2(F)F)c(=O)n1 [gemcitabine] | limited efficacy | substantially higher than those observed after IV administration | 
2 |  |  | O=C1[O][Pt]2([NH][C@@H]3CCCC[C@H]3[NH]2)[O]C1=O [oxaliplatin] |  |  | achieving therapeutic bladder concentrations
